Measurements taken from patent publication US20120190615A1, “METHODS AND COMPOSITIONS FOR INDUCING WEIGHT LOSS” (Sanford-Burnham Medical Research Institute, priority 2011, published 2012).
Several values for one entry are separate records, joined by “and”; a condition that tells them apart may be missing. Equal entries are not always repeated.

What was measured:
[1] = test system: primary brown preadipocytes; assay: Differentiation of primary brown preadipocytes (Oil Red O); type: cell-based, mice
Source text: To assess differentiation of primary brown adipocytes, iBAT preadipocytes were isolated from 1-day-old mice and then differentiated in the presence of OX. Differentiation was confirmed by Oil Red O staining which visualizes lipid accumulation (FIG. 7). […] Taken together. OX activates a full program of brown fat adipogenesis by suppressing adipogenic inhibitors, including BAT regulators, elevating mitochondrial biogenesis and oxygen consumption, and inducing uncoupled respiration.
To investigate whether lack of OXR1 impaired BAT differentiation potential, primary brown preadipocytes from OXR1 knockout mice were isolated and differentiated. Generation of wild-type primary brown preadipocyte cell lines was derived from newborn wild-type mice as described previously by Klein et al. (Bioessays, 24: 382-388, 2002), which is hereby incorporated by reference in its entirety. Brown preadipocytes isolated from C57BL-6 mice served as positive control. All cell lines were maintained in Dulbecco's modified […] medium (DMEM), high glucose, supplemented with 10% FBS at 37° C. in a 5% CO2 environment. To induce adipogenesis, the cells were treated for 3 days with either BMP7 or 100 nM OX, at which time they were confluent. Cells were then incubated in adipogenic medium containing 0.125 mM indomethaein, […] dexamethazone, and […] 3-isobutyl-1-methyxanthine (IBMX) supplemented by 20 nM insulin as described by Tseng et al., (Nature, 454: 1000-1004, 2008) which is hereby incorporated by reference in its entirety.

BMP signaling = BMP signaling in C3H10T1/2 cells (qPCR of Bmpr1a and BMP-7, Smad 1/5/8 phosphorylation); type: cell-based, mouse; details: 100 nM OX 3 days
Source text: Bone morphogenic proteins, which are members of the TGF-β superfamily, control critical steps in development and differentiation and are important regulators of both WAT and BAT adipogenesis. BMP-2 and -4 induce white fat adipogenesis, while BMP-7 enhances brown fat traits. BMP-7 functions through interacting with BMP receptors, which mediate Smad 1/5/8 phosphorylation, to stimulate brown fat adipogenesis.

C57BL/6 mice = assay: Single intraperitoneal OX injection, indirect calorimetry (CLAMS) and iBAT analysis; type: in vivo; details: single 30 mg kg−1 i.p. dose
Protocol: One dose of 30 mg kg^−1 OX was administered intraperitoneally in a single dose to 6-8 week C57BL/6 mice, and metabolic rates and energy expenditure of those mice were then compared to 1 mg kg^−1 isoproterenol- or vehicle (PBS) control-injected mice. Isoproterenol is a beta-sympathomimetic and serves as a reference for Ucp1 expression and brown fat activity. Metabolic rates were measured by indirect calorimetry using the Comprehensive Lab Animal Monitoring System (CLAMS, Columbus Instruments). Food and water were available ad libitum. Mice were acclimatized to individual cages for 24 hours prior to recording, and then underwent 24 hours of monitoring.
Increased energy expenditure was positively correlated with iBAT lipolysis, as evident from depletion of fat droplets. […] As a consequence, core body temperature was elevated by OX injection.

obese wild type B6 mice = assay: Reversal of diet-induced obesity, OX twice weekly for 4 wks after 17 weeks HFD (Example 13); type: in vivo
Protocol: To confirm that systemic OX therapy induces weight loss in obese mice, wild type B6 mice were fed a HFD for 17 weeks and treated either with OX (10 mg/kg) or PBS vehicle twice weekly for 4 wks (n=6 mice/group). […] The OX-injected group began losing body weight from week 1. At the end of the 4-week treatment regimen, the OX-injected population appeared considerably leaner than the vehicle-injected controls, and the former had lost about 10 g body weight, as shown in FIG. 29A. […] Enhancement of energy expenditure was not due to any increase in physical activity (FIG. 29C).
To evaluate changes associated with weight loss, OX-treated and untreated mice were compared at autopsy. Untreated mice fed a high fat diet had developed fatty livers, which were visibly paler in color than those from OX-treated mice (FIG. 29E).

[2] = cited from earlier work
[3] = end of 4-week treatment, OX 10 mg/kg twice weekly

orexin-A (EPLPDCCRQKTCSCRLYELLHGAGNHAAGILTL) [OX, human orexin A, cat; No. 24470, Anaspec]
differentiation of wild-type preadipocytes based on lipid accumulation ([1]; 3 days BMP7 or 100 nM OX, then adipogenic medium): enhanced differentiation | adipogenesis of iBAT preadipocytes from 1-day-old mice ([1]; differentiated in the presence of OX): robust adipogenesis within 7 days | differentiation of brown preadipocytes from OXR1-null mice ([1]; in the presence of OX): little differentiation capacity | BMP-receptor 1A and BMP-7 mRNA expression (BMP signaling): induced | core body temperature (C57BL/6 mice): elevated | food consumption (C57BL/6 mice): increased food consumption | increase in whole-body energy expenditure (C57BL/6 mice): 23-25% | oxygen consumption (C57BL/6 mice): stimulated oxygen consumption | physical activity (C57BL/6 mice): decreased physical activity | prdm16, Pgc1-alpha, C/ebp-alpha, Dio2, Ucp-1 expression in BAT (C57BL/6 mice): induced | extent of iBAT lipolysis (C57BL/6 mice; isoproterenol 1 mg kg−1 reference): comparable to that induced by isoproterenol | amount of visceral fat (obese wild type B6 mice; 4 weeks treatment): considerably decreased | food intake (obese wild type B6 mice; between groups): did not differ significantly | lean mass or fluid content (obese wild type B6 mice; between groups): not significantly different | energy expended, more than the control group (obese wild type B6 mice; calorimetric studies): 17% | oxygen consumed, more than the control group (obese wild type B6 mice; calorimetric studies): 13% | body weight lost (obese wild type B6 mice; end of 4-week treatment): about 10 g | % body fat (obese wild type B6 mice; [3]): 27% and 27 ± 1.4% | Fat mass (obese wild type B6 mice; [3]): 7.9 ± 0.6 | Lean mass (obese wild type B6 mice; [3]): 20.4 ± 1.3 | Lean mass fat mass ratio (obese wild type B6 mice; [3]): 2.58 ± 0.2 | Body weight (obese wild type B6 mice; end of 4-week treatment, OX 10 mg/kg twice weekly, in g (unit assumed)): 29.2 ± 0.8 | reduction of whole body fat mass (obese wild type B6 mice; end of the study): 55% | triglycerides within the liver (obese wild type B6 mice; high fat diet, at autopsy): 91 ± 7 µmol/g | iBAT mitochondrial content/activity (obese wild type B6 mice; mitoTracker-stained iBAT sections, relative to controls): elevated mitochondrial content/activity | blood-brain barrier permeation ([2]; in contrast with orexin-B): blood-brain barrier permeant | liposolubility ([2]; versus orexin-B): higher liposolubility than orexin-B | stability ([2]; versus orexin-B): much more stable than Orexin-B
